One assay deals with Galectin-1 (Homo sapiens, UniProt P09382). The experiment in a line: Biological Assay. As for the experimental part:
(§1) The inhibitory activity of compounds is determined in competitive binding assays. […] Finally, 25 μL/well of ABTS substrate is added.

A further assay addresses Galectin-3 (Homo sapiens, UniProt P17931). The experiment in a line: Biological Assay. As for the experimental part:
as §1

In general, IC50 refers to the concentration that gives 50% inhibition. Higher therefore signals lower potency.

Sequence of Galectin-3 (P17931 whole entry): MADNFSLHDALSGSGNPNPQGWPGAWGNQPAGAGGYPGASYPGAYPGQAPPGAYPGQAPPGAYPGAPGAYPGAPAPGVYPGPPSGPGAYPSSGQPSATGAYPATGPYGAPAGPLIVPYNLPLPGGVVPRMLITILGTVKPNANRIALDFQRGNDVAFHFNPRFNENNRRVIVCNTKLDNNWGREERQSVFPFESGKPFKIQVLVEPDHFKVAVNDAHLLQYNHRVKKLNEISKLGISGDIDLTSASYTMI
Sequence of Galectin-1 (P09382 whole entry): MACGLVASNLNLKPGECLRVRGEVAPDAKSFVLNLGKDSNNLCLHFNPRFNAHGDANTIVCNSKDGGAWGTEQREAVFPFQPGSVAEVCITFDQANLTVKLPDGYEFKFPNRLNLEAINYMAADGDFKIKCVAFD

On to `CO[C@@H]1[C@@H](n2cc(-c3cccc(F)c3)nn2)[C@@H](O)[C@@H](CO)O[C@H]1C(=O)N(c1cc(Cl)cc(Cl)c1)[C@H]1CCCC[C@@H]1O` [US12291519, Example 72], for which the IC50 against Galectin-1 was determined as 58 nM; at Galectin-3, 31 nM.

For `CO[C@@H]1[C@@H](n2cc(-c3cc(F)cc(Cl)c3)nn2)[C@@H](O)[C@@H](CO)O[C@H]1C(=O)N(c1cc(Cl)cc(C#N)c1)[C@H]1CCCC[C@@H]1O` [US12291519, Example 133], the IC50 on Galectin-1 was 184 nM; against Galectin-3, 22 nM.

Consider `Cc1nc(CN(C(=O)[C@@H]2O[C@H](CO)[C@H](O)[C@H](n3cc(-c4cc(F)c(F)c(F)c4)nn3)[C@H]2O)[C@H]2CCCC[C@@H]2O)c[nH]1` [US12291519, Example 14], for which the figures for the IC50 against Galectin-1 and against Galectin-3 were 40600 nM and 564 nM, respectively.

For the molecule `CO[C@@H]1[C@@H](n2cc(-c3cc(F)c(Cl)c(F)c3)nn2)[C@@H](O)[C@@H](CO)O[C@H]1C(=O)N(c1cc(Cl)cc(C#N)c1)[C@H]1CCCC[C@@H]1O` [US12291519, Example 157], the half-inhibitory concentration (IC50) turned out to be 709 nM against Galectin-1 and 19 nM against Galectin-3.

As to `CO[C@@H]1[C@@H](n2cc(-c3cc(F)c(Cl)c(Cl)c3)nn2)[C@@H](O)[C@@H](CO)O[C@H]1C(=O)N(c1cc(Cl)cc(C#N)c1)[C@H]1CCCC[C@@H]1O` [US12291519, Example 169], the results for the half-maximal inhibitory concentration (IC50) at Galectin-1 and against Galectin-3 were 333 nM and 14 nM, respectively.

For `CO[C@@H]1[C@@H](n2cc(-c3ccc(C(F)(F)F)c(F)c3)nn2)[C@@H](O)[C@@H](CO)O[C@H]1C(=O)N(c1cc(Cl)cc(Cl)c1)[C@H]1CCCC[C@@H]1O` [US12291519, Example 180], the 50% inhibitory concentration (IC50) was determined as 1200 nM against Galectin-1 and 11 nM against Galectin-3.

Take `Cn1cnc(CN(C(=O)[C@@H]2O[C@H](CO)[C@H](O)[C@H](n3cc(-c4cc(F)c(F)c(F)c4)nn3)[C@H]2O)[C@H]2CCCC[C@@H]2O)c1` [US12291519, Example 19]: the 50% inhibitory concentration (IC50) at Galectin-1 amounted to 37600 nM; on Galectin-3 it was 403 nM.

For `CO[C@@H]1[C@@H](n2cc(-c3cc(F)cc(F)c3)nn2)[C@@H](O)[C@@H](CO)O[C@H]1C(=O)N(c1cc(Cl)cc(Cl)c1)[C@H]1CCCC[C@@H]1O` [US12291519, Example 78], the half-maximal inhibitory concentration (IC50) was found to be 192 nM on Galectin-1 and 26 nM on Galectin-3.

As for `O=C([C@@H]1O[C@H](CO)[C@H](O)[C@H](n2cc(-c3cc(F)c(Cl)c(F)c3)nn2)[C@H]1O)N(Cc1ccccc1C(F)(F)F)[C@H]1CCCC[C@@H]1O` [US12291519, Example 67], the 50% inhibitory concentration (IC50) was determined as 610 nM on Galectin-1 and 42 nM against Galectin-3.

For `CO[C@@H]1[C@@H](n2cc(-c3cc(F)c(F)c(F)c3)nn2)[C@@H](O)[C@@H](CO)O[C@H]1C(=O)N(c1ccc(Cl)c(Cl)c1)[C@H]1CCCC[C@@H]1O` [US12291519, Example 98], the 50% inhibitory concentration (IC50) against Galectin-1 was determined as 169 nM; against Galectin-3 it was 33 nM.

On to `Cn1ccc(CN(C(=O)[C@@H]2O[C@H](CO)[C@H](O)[C@H](n3cc(-c4cc(F)c(F)c(F)c4)nn3)[C@H]2O)[C@H]2CCCC[C@@H]2O)n1` [US12291519, Example 24], for which the IC50 against Galectin-1 worked out at 25900 nM; on Galectin-3, 294 nM.

Take `CO[C@@H]1[C@@H](n2cc(-c3cccc(F)c3)nn2)[C@@H](O)[C@@H](CO)O[C@H]1C(=O)N(c1cc(Br)cc(C#N)c1)[C@H]1CCCC[C@@H]1O` [US12291519, Example 77]: the 50% inhibitory concentration (IC50) was determined as 140 nM at Galectin-1 and 37 nM at Galectin-3.

Consider `O=C([C@@H]1O[C@H](CO)[C@H](O)C(n2cc(-c3cc(F)c(F)c(F)c3)nn2)[C@H]1OCCO)N(c1cc(Cl)cc(Cl)c1)[C@H]1CCCC[C@@H]1O` (stereo partly drawn) [US12291519, Example 196], for which the results for the IC50 against Galectin-1 and against Galectin-3 were 161 nM and 21 nM, respectively.

On to `CO[C@@H]1[C@@H](n2cc(-c3cc(F)c(F)c(F)c3)nn2)[C@@H](O)[C@@H](CO)O[C@H]1C(=O)N(c1cc(Br)cc(C#N)c1)[C@H]1CCCC[C@@H]1O` [US12291519, Example 112], for which the half-inhibitory concentration (IC50) was 150 nM against Galectin-1 and 8 nM at Galectin-3.

`COc1cc(-c2cn([C@H]3[C@@H](O)[C@@H](CO)O[C@@H](C(=O)N(c4cc(Cl)cc(C#N)c4)[C@H]4CCCC[C@@H]4O)[C@@H]3OC)nn2)ccc1Cl` [US12291519, Example 184]: the concentration for half-maximal inhibition (IC50) stood at 282 nM at Galectin-1 and 29 nM against Galectin-3.

As to `CO[C@@H]1[C@@H](n2cc(-c3cc(F)c(Cl)c(F)c3)nn2)[C@@H](O)[C@@H](CO)O[C@H]1C(=O)N(c1cc(Cl)cc(Cl)c1)[C@H]1CCCC[C@@H]1O` [US12291519, Example 156], the IC50 was determined as 1380 nM against Galectin-1 and 14 nM against Galectin-3.

With `CO[C@@H]1[C@@H](n2cc(-c3cc(F)c(Cl)cc3F)nn2)[C@@H](O)[C@@H](CO)O[C@H]1C(=O)N(c1cc(Cl)cc(C#N)c1)[C@H]1CCCC[C@@H]1O` [US12291519, Example 182], the concentration for half-maximal inhibition (IC50) turned out to be 267 nM against Galectin-1 and 35 nM at Galectin-3.

As for `COc1cc(-c2cn([C@H]3[C@@H](O)[C@@H](CO)O[C@@H](C(=O)N(c4cc(Cl)cc(Cl)c4)[C@H]4CCCC[C@@H]4O)[C@@H]3OC)nn2)cc(F)c1F` [US12291519, Example 183], the values for the 50% inhibitory concentration (IC50) at Galectin-1 and at Galectin-3 were 516 nM and 9 nM, respectively.

`COc1cc(C#N)cc(N(C(=O)[C@@H]2O[C@H](CO)[C@H](O)[C@H](n3cc(-c4ccc(Cl)c(Cl)c4)nn3)[C@H]2OC)[C@H]2CCCC[C@@H]2O)c1` [US12291519, Example 188]: the concentration for half-maximal inhibition (IC50) against Galectin-1 was 1120 nM; against Galectin-3, 44 nM.

For the origin of these results see BindingDB's records for patent US12291519 (Idorsia Pharmaceuticals, 2025).
